We go through four compounds from US11154543B2, “P38 MAP kinase inhibitors for wound healing” (The Schepens Eye Research Institute, Inc., priority 2015, dated 2021).

Holding throughout (type): cell-based
Assay [1] relates to human corneal fibroblasts (HCF). Description: αSMA western blot in human corneal fibroblasts ± TGF-β1. Particulars: for αSMA protein expression in the presence of TGF-β1: inhibitor 24 h, then inhibitor + TGF-β1 24 h, Birb-796 10 μM, SB239063 20 μM, SB203580 5 uM, compared with HCF+TGF-β1; for αSMA expression (ratio of αSMA to β actin), TGF-β1-induced increase: serum-free, 10 uM inhibitor pre-treatment 24 h, then inhibitor + 2 ng/ml TGF-β1 24 h, compared with TGF-β1 alone (lane 2). The protocol:
FIG. 1 is an image of a representative western blot of human corneal fibroblasts cultured with 1) Basic Medium (BM: Eagles minimum essential medium) for 48 hours; 2) BM for 24 hours, then BM+TGF-β1 for 24 hours, 3) BM for 24 hours, then BM+p38 inhibitor for 24 hours, and 4) BM+p38 Inhibitor for 24 hours, then BM+p38 inhibitor+TGFβ1. Graph of SMA corrected per lane with internal control (β-actin).
FIG. 4 is a graph depicting analysis of αSMA protein expression in human corneal fibroblasts cultured with 1) Basic Medium (BM: Eagles minimum essential medium) for 48 hours; 2) BM for 24 hours, then BM+TGF-β1 for 24 hours, 3) BM for 24 hours, then BM+Birb-796 for 24 hours, 4) BM+Birb-796 for 24 hours, then BM+Birb-796+TGF-β1 for 24 hours; 5) BM for 24 hours, then BM+SB239063 for 24 hours; 6) BM+SB239063 for 24 hours, then BM+SB239063+TGF-β1 for 24 hours; 7) BM for 24 hours, then BM+SB203580 for 24 hours; and 8) BM+SB203580 for 24 hours, then BM+SB203580+TGF-β1 for 24 hours. Graph of SMA corrected per lane with internal control (β-actin).
The protocol for alpha smooth muscle actin (αSMA) testing in human corneal fibroblasts (HCF) is shown below using treatment with/without p38 inhibitor (SB202190) as an example treatment. • 1. Grow HCF (human corneal fibroblast cells) in 100 mm dishes (×12). • 2. When cells get 60-70% confluent, rinse with PBS for 3 times. Then: • a. Put serum-free EMEM to starve cells overnight. (9×) • b. Put serum-free EMEM with 10 uM of p38 inhibitor (SB202190) overnight to pre-treat cells. (3×) • 3. Next day, treat cells as follows and incubate overnight: • c. 10 ml of serum-free EMEM (3×) • d. 10 ml of serum-free EMEM with 2 ng/ml of TGF-β1. (3×) • e. 10 ml of serum-free EMEM with 10 uM of p38 inhibitor (SB202190). (3×) • f. 10 ml of serum-free EMEM with 10 uM of p38 inhibitor (SB202190) and 2 ng/ml of TGF-β1 into pre-treated dishes (2b). (3×) • 4. Harvest cells by trypsinization and store cells at −80° C.
Samples were lysed with RIPA buffer and western blot analysis was performed, as previously described (Chung E H, IOVS 1999; 40:1952-8) with minor changes. Membranes with separated proteins were probed with anti-αSMA (alpha-smooth muscle actin) and β-Actin (beta-actin) according to the protocol in Example 1. After reaction with corresponding DyLight secondary antibodies, membranes were scanned on Odyssey and software was used to measure the bands (ImageJ, v. 1.5), and the data was analyzed and plotted (Prism 5.0; GraphPad software).
The above protocol was utilized to assay αSMA expression in human corneal and skin fibroblasts under different culture conditions, including in the presence of p38 inhibitor. […] In FIG. 3, high levels of αSMA indicate that most dermal fibroblasts in culture were already myofibroblast cells (lane 1).
Three additional p38 inhibitors shown in Table 1 below were test in HCF. […] The concentrations of these three inhibitors were not optimized and it is believed that with higher concentration of these p38 inhibitors, αSMA expression will be decreased to a greater extent.

Assay [2] concerns human corneal myofibroblasts (T1-treated HCF). Description: Reversal of αSMA in TGF-β1-differentiated human corneal myofibroblasts (western blot). To be noted: HCF pre-treated 2 ng/ml T1 for 3 days. The procedure:
FIGS. 7A and 7B show analysis of αSMA expression in HCF cultured as follows: 1) HCF: RM, 2) T1: RM+T1 (for 3 days), or 3) RM+T1 for 3 days, then RM±p38inh for 1 (D1), 2 (D2), or 3 days (D3). (A) Representative western blot.
In this experiment, we examined if p38 inhibitor could not only reduce, but reverse αSMA levels, thus converting myofibroblasts back to their fibroblastic phenotype. To do this, HCF were treated with 2 ng/ml of T1 for 3 days. This allowed for the majority of the HCF to differentiate to their myofibroblastic phenotype with high levels of αSMA expression. After rinsing with PBS three times, these T1-treated cells were split into two groups: 1) regular medium (RM) and 2) p38 inhibitor (p38inh) medium. Media was changed every day. Cells were harvested after 1, 2, or 3 days for αSMA analysis by WB. […] The T1 cells then were split into two groups, RM or p38inh, and the appropriate medium was applied. […] On day 3 (D3), αSMA levels in both media samples decreased.
(A western blot detects proteins with antibodies after separation by electrophoresis.)

The next assay deals with human dermal fibroblasts. Description: αSMA western blot in human dermal fibroblasts ± TGF-β1. To be noted: BM+10% FBS, p38 inhibitor 24 h pre-treatment ± TGF-β1, compared with normal culture (lane 1) and T1 (lane 2). The protocol:
FIG. 3 is an image of a representative western blot of human dermal fibroblasts cultured with 1) Basic Medium (BM: Eagles minimum essential medium)+10% FBS for 48 hours; 2) BM+10% FBS for 24 hours, then BM+10% FBS+TGFβ1 for 24 hours, 3) BM+10% FBS for 24 hours, then BM+10% FBS+p38 inhibitor for 24 hours, and 4) BM+10% FBS+p38 Inhibitor for 24 hours, then BM+10% FBS+p38 inhibitor+TGF-β1. Graph of SMA corrected per lane with internal control (β-actin).
The protocol for alpha smooth muscle actin (αSMA) testing in human corneal fibroblasts (HCF) is shown below using treatment with/without p38 inhibitor (SB202190) as an example treatment. • 1. Grow HCF (human corneal fibroblast cells) in 100 mm dishes (×12). • 2. When cells get 60-70% confluent, rinse with PBS for 3 times. Then: • a. Put serum-free EMEM to starve cells overnight. (9×) • b. Put serum-free EMEM with 10 uM of p38 inhibitor (SB202190) overnight to pre-treat cells. (3×) • 3. Next day, treat cells as follows and incubate overnight: • c. […]
Samples were lysed with RIPA buffer and western blot analysis was performed, as previously described (Chung E H, IOVS 1999; 40:1952-8) with minor changes. […] After reaction with corresponding DyLight secondary antibodies, membranes were scanned on Odyssey and software was used to measure the bands (ImageJ, v. 1.5), and the data was analyzed and plotted (Prism 5.0; GraphPad software). […]

In assay [3] the test system is human corneal fibroblasts. Briefly: Indirect immunofluorescence of SMA in human corneal fibroblasts. To be noted: HCF; p38 inhibitor 24 h, then p38 inhibitor + TGF-β1; compared with TGF-β1 alone (FIG. 2B). From the text:
FIGS. 2A-2D are representative indirect immunofluorescent images of human corneal fibroblasts. […] Grey stripes staining=SMA and grey dots staining=DAPI, a nuclear counterstain. […] This is in agreement with the western blot in FIG. 1.

In assay [4] the test system is human corneal 3-D constructs (HCF and their self-assembled matrix). Description: αSMA western blot in human corneal 3-D stromal constructs. The procedure: FIG. 6 includes a bar graph and a western blot showing analysis of αSMA expression in human corneal 3-D constructs. Human Corneal Fibroblasts (HCF) were cultured as follows: 1) RM (Regular Medium: Eagle's minimum essential medium+10% FBS for 9 days); 2) T1 (RM for 24 hours, then RM+2 ng/ml of TGF-beta (T1) for 8 days); 3) p38 inhibitor (p38inh) (RM for 24 hours, then RM+10 μM of p38 inhibitor [SB202190] for 8 days); and 4) T1+p38inh (RM+SB202190 for 24 hours, then RM+SB202190+TGF-1 for 8 days). Graph of αSMA corrected per lane with internal control (β-actin). […] The western blot is shown in the upper right corner.
Data shown in previous figures were generated using cells in culture. […] The system a cell-based 3-D corneal stromal construct containing human corneal fibroblasts (HCF) and their self-assembled matrix. This art-recognized model mimics stromal development and wound healing. To test this, we cultured human corneal fibroblasts (HCF) in 0.5 mM Vitamin C±2 ng/ml TGF-β1 (T1) and/or 10 μM p38 inhibitor #1 (SB202190) for 9 days. The media was changed every day. After 9 days, the samples were harvested and analyzed for αSMA by western blot (WB). […] The data also indicate that p38 inhibitor(s) inhibit scar formation during corneal wound healing.

“Also recorded” adds a separate entry of the source.

`Cc1ccc(-n2nc(C(C)(C)C)cc2NC(=O)Nc2ccc(OCCN3CCOCC3)c3ccccc23)cc1` [Birb-796, Doramapimod]: the “αSMA protein expression in the presence of TGF-β1” value (shortened to “αSMA protein expression”) in assay [1] was “significantly different”.

For the compound `Oc1ccc(-c2nc(-c3ccc(F)cc3)c(-c3ccncc3)[nH]2)cc1` [SB202190, 4-(4-Fluorophenyl)-2-(4-hydroxyphenyl)-5-(4-pyridyl)1H-imidazole], the “αSMA levels on day 1 (D1)” value in assay [2] (then p38inh medium 1 day, compared with T1 control) was “continued to increase”. Also, the “αSMA levels on day 2 (D2)” value in assay [2] (then p38inh medium 2 days, compared with RM sample, p<0.05) is reported as “significantly lower than the RM sample; also recorded: decreased significantly”. The “αSMA levels on day 3 (D3)” value in assay [2] (then p38inh medium 3 days, compared with RM sample) is listed as “continued to be lower than that in the RM sample”. The results for the “αSMA expression (ratio of αSMA to β actin), TGF-β1-induced increase” value in assay [1] and in assay [1] (listed as p38 inhibitor) were “inhibits the TGF-β1 induced increase in expression of αSMA” and “significantly different”, respectively. In addition, the entries for the “αSMA expression (corrected with β-actin)” value in the assay with human dermal fibroblasts and in the assay on human dermal fibroblasts (listed as p38 inhibitor) were “significantly decreased” and “significantly different”, respectively. In assay [3], the “αSMA staining / number of SMA-positive cells” value was “mitigated”. The “αSMA expression, T1 + p38 inhibitor versus control” value in assay [4] (10 μM inhibitor + 2 ng/ml TGF-β1, 9 days (lane 4 vs lane 1)) was “decreased as compared with control”. Besides, the “αSMA expression, T1 + p38 inhibitor versus T1” value in assay [4] (10 μM inhibitor + 2 ng/ml TGF-β1, 9 days (lane 4 vs lane 2), p<0.001) was “significantly lower than T1; also recorded: significantly different”. Further, in assay [4] (10 μM inhibitor, 9 days (lane 3), compared with control, p<0.05), the “αSMA expression, p38 inhibitor alone” value is reported as “significantly decreased; also recorded: significantly lower than others”.

Turning to `C[S+]([O-])c1ccc(-c2nc(-c3ccc(F)cc3)c(-c3ccncc3)[nH]2)cc1` (centres unmarked) [SB203580, 4-(4′-Fluorophenyl)-2-(4′-methylsulfinylphenyl)-5-(4′-pyridyl)-imidazole], the “αSMA protein expression” value in assay [1] is given as “significantly different”.

With `COc1nccc(-c2c(-c3ccc(F)cc3)ncn2C2CCC(O)CC2)n1` (stereo not drawn) [SB239063, trans-1-(4-Hydroxycyclohexyl)-4-(4-fluorophenyl)-5-(2-methoxypyridimidin-4-yl)imidazole], the “αSMA protein expression” value in assay [1] is “significantly different”.
